Patent US5679673A (priority 1994, dated 1997)

Experiments:
NMDA receptor = conditions: C. Carter et al, J. Pharm Exp. Ther., 1988; cited from earlier work
sigma receptor [1] = conditions: de Costa et al, J. Med. Chem. 1989 and further structure activity studies; cited from earlier work
sigma receptor [2] = target: T1, sigma receptor (Cavia porcellus, UniProt Q60492); assay: Radioreceptor assay: displacement of [3H](+)-pentazocine from guinea pig brain membranes; format: binding; conditions: [3H](+)-pentazocine 3 nM, guinea pig brain crude P2 membranes, pH 8.0, 120 min, 25° C.; average of 2-4 experiments; from IC50 by Cheng-Prusoff; read-out: Ki ([3H] (+) -Pent)
T1 construct: crude synaptosomal (P2) membrane fraction of guinea pig brain; tissue Pel-Freeze (frozen guinea pig brains); host or cells: guinea pig brain minus cerebella, crude P2 membranes
T1 sequence (Q60492 whole entry): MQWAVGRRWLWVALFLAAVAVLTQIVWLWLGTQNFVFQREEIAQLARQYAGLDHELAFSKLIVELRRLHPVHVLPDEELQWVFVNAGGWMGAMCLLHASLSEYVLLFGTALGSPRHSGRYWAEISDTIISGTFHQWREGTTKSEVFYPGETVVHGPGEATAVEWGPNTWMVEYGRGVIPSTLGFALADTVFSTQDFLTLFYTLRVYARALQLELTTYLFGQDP

| Compound | NMDA receptor antagonism (NMDA receptor) | sigma receptor ligand (sigma receptor [1]) | other results |
| --- | --- | --- | --- |
| 1-(4-chlorophenyl)-2-[1-(4-fluorophenyl)-piperidinyl]ethanol | non-competitive NMDA receptor antagonists |  |  |
| CN(CCc1ccc(Cl)c(Cl)c1)[C@@H]1CCCC[C@@H]1N1CCCC1 (single isomer, unassigned) [(+)-cis-N-[3,4-dichlorophenylethyl]-N-methyl-2-(1-pyrrolidinyl)-cyclohexylamine] |  | extremely potent and selective ligands for the sigma receptor |  |
| CN(CCc1ccc(Cl)c(Cl)c1)[C@@H]1CCCC[C@@H]1N1CCCC1 (single isomer, unassigned) [(-)-cis-N-[3,4-dichlorophenylethyl]-N-methyl-2-(1-pyrrolidinyl)-cyclohexylamine] |  | extremely potent and selective ligands for the sigma receptor |  |
| Clc1ccc(CCN2CCN3CCC2CC3)cc1Cl [Compound of Ex. 5, 4-[2-(3,4-Dichlorophenyl)ethyl]-1,4-diazabicyclo[2.2.3]nonane] |  |  | Ki (sigma receptor [2]): 125 nM |
| CC(C(O)c1ccc(O)cc1)N1CCC(Cc2ccccc2)CC1 (centres unmarked) [ifenprodil] | non-competitive NMDA receptor antagonists |  |  |
